IC50 data for 14 compounds are collected here from US9856259B2, “Heterocyclic compounds and uses thereof” (Plexxikon Inc., priority 2014, dated 2018).

In this assay the test system is cancer cell lines / MV-4-11 Myc reporter cell line. Put plainly: Bromodomain cell assays of Example 8 (at least one of them). The following applies: Homo sapiens, MV4-11; at least one of the bromodomain cell assays described in Example 8. The class given is cell-based. Here is the method:
In this study, we test compounds in different cancer cell lines. MV-4-11 and MOLM-13 are AML cell lines harboring a MLL-AF4 and MLL-AF9 translocation, respectively. MM.1S is a multiple myeloma cell line. SK—N-AS, IMR-32 and SK-N-BE(2) are neuroblastoma cell lines. IMR-32 and SK-N-BE(2) cell lines harbor MYCN amplifications.
MV-4-11, MM.1S, IMR-32, SK-N-AS and SK-N-BE(2) were obtained from ATCC (IL, USA) and MOLM-13 were purchased from DSMZ (Braunschweig, German). Cells are cultured as recommended by their sources. For growth inhibition studies 3000 cells are seeded in wells of a 96-well plate in 75 μL of culture media. After several hours, growth media containing compounds of formula (I) are added to the wells. Compound at a maximal concentration of 5 mM was serially diluted 1:3 for a total of 8 point titration with DMSO as a control. A 1 μL aliquot of each dilution point is added to 249 μL growth media and 75 μL is added to each well containing cells, providing 10 μM compound at the maximum concentration point. The final concentration of DMSO in all wells is 0.2%. Cells are incubated for 72 hours, and 25 μL of CellTiter Glo Reagent (Promega Ga., USA) is added to each well. Plates are shaken for approximately 10 minutes and chemiluminescent signal is read on Tecan microplate reader. The measured luminescence correlates directly with cell number.
All data is normalized to the mean of eight DMSO high control wells on each plate. A four parameter curve fit of the following formula was then applied: Y=a+(b−a)/(1+(x/c)^d) Where ‘a’ is the minimum, ‘b’ is the maximum, ‘c’ is the pIC50 and ‘d’ is the Hill slope. […] Myc Reporter Assay
In MV-4-11 cells, BRD2, BRD3 and BRD4 bind to the promoter region of MYC and regulate its transcription (Dawson M A et al. 2011). The literature bromodomain inhibitor iBET 151 could disrupt BRD4 recruitment to the MYC promoter and subsequently downregulate c-myc transcription (Dawson M A et al. 2011). Myc protein is a transcription factor that heterodimerizes with an obligatory partner Max and regulates the transcription of genes important for cell proliferation, differentiation, and apoptosis. This Myc reporter assay is used to monitor the inhibitory effect of compound of formula (I) on Myc dependent gene expression. Effective compounds could have potential therapeutic effects in Myc-driven tumors.
The MV-4-11 Myc reporter cell line is established by infecting MV-4-11 with VSV-g pseudotyped lentivirus expressing the firefly luciferase gene under the control of a minimal (m) CMV promoter and tandem repeats of the E-box transcriptional response element (TRE) (Qiagen IL, USA) and selecting cells in 2.5 μg/ml Puromycin.
The MV-4-11 Myc reporter cell line is maintained in Iscove's Modified Dulbecco's Medium containing 10% FBS, 1% PenStep and 2.5 μg/ml Puromycin. Cells are incubated at 37° C. in a humidified atmosphere with 5% CO2. 25,000 cells are seeded in 96-well plate in 50 μL of culture media. After several hours, growth media containing 2× compounds are added to the wells. Compound at a maximal concentration of 5 mM is serially diluted 1:3 for a total of 8 point titration. A 1 μl aliquot of each dilution point is added to 249 μl growth media and 50 μl is added to each well containing cells, providing 10 μM compound at the maximum concentration point. DMSO treated cells serve as a high control and 10 μM JQ1 treated cells serve as a low control. Cells are incubated for a further 24 hours and 25 μL of CellTiter-Fluo Reagent (Promega Ga., USA) is added to each well. Plates are shaken for approximately 2 minutes and incubated at 37° C. for 0.5 hour. Fluorescence signal is read in a Tecan Plate reader (λex=400 nm, λcm=505 nm). 25 μL of One-Glo Reagent (Promega Ga., USA) is then added to the plates. Chemiluminescent signal is read on Tecan plate reader. Values from the wells with no cells are subtracted from all samples for background correction. […]
For the compound `Cc1noc(C)c1-c1ccc2[nH]nc(Cc3ccccc3)c2c1` [Compound P-2035, 4-(3-benzyl-1H-indazol-5-yl)-3,5-dimethyl-isoxazole], the IC50 was less than 10 µM.

The compound `CCOC(=O)c1ccc(-n2nc(Cc3ccccc3)c3cc(-c4c(C)noc4C)ccc32)c(F)c1` [Compound P-2036, ethyl 4-[3-benzyl-5-(3,5-dimethylisoxazol-4-yl)indazol-1-yl]-3-fluoro-benzoate] yielded an IC50 of less than 10 µM.

`Cc1noc(C)c1-c1ccc2c(c1)c(Cc1ccccc1)nn2-c1ccc(C(=O)O)cc1F` [Compound P-2037, 4-[3-benzyl-5-(3,5-dimethylisoxazol-4-yl)indazol-1-yl]-3-fluoro-benzoic acid] yielded an IC50 of less than 10 µM.

In the case of `Cc1noc(C)c1-c1cnc2c(I)nn([C@@H](C)c3ccccn3)c2c1` [Compound P-2091, 4-[3-iodo-1-[(1S)-1-(2-pyridyl)ethyl]pyrazolo[4,3-b]pyridin-6-yl]-3,5-dimethyl-isoxazole], the IC50 was less than 10 µM.

The compound `Cc1noc(C)c1-c1cnc2c(-c3ccc(C(=O)O)cc3)nn([C@@H](C)c3ccccn3)c2c1` [Compound P-2093, 4-[6-(3,5-dimethylisoxazol-4-yl)-1-[(1S)-1-(2-pyridyl)ethyl]pyrazolo[4,3-b]pyridin-3-yl]benzoic acid] gave an IC50 of less than 10 µM.

In the case of `Cc1noc(C)c1-c1cnc2c(-c3ccc(CC(=O)O)cc3)nn([C@@H](C)c3ccccn3)c2c1` [Compound P-2094, 2-[4-[6-(3,5-dimethylisoxazol-4-yl)-1-[(1S)-1-(2-pyridyl)ethyl]pyrazolo[4,3-b]pyridin-3-yl]phenyl]acetic acid], the IC50 was less than 10 µM.

In the case of `Cc1noc(C)c1-c1cnc2c(I)nn(C(c3ccccc3)c3ccccn3)c2c1` (centres unmarked) [Compound P-2095, 4-[3-iodo-1-[phenyl(2-pyridyl)methyl]pyrazolo[4,3-b]pyridin-6-yl]-3,5-dimethyl-isoxazole], the IC50 was less than 10 µM.

Turning to `Cc1noc(C)c1-c1cnc2c(-c3ccc(C(=O)O)cc3)nn(C(c3ccccc3)c3ccccn3)c2c1` (centres unmarked) [Compound P-2096, 4-[6-(3,5-dimethylisoxazol-4-yl)-1-[phenyl(2-pyridyl)methyl]pyrazolo[4,3-b]pyridin-3-yl]benzoic acid], the IC50 is less than 10 µM.

`Cc1noc(C)c1-c1cnc2c(-c3ccc(CC(=O)O)cc3)nn(C(c3ccccc3)c3ccccn3)c2c1` (centres unmarked) [Compound P-2097, 2-[4-[6-(3,5-dimethylisoxazol-4-yl)-1-[phenyl(2-pyridyl)methyl]pyrazolo[4,3-b]pyridin-3-yl]phenyl]acetic acid] had an IC50 of less than 10 µM.

For `Cc1noc(C)c1-c1cnc2c(-c3cnn(CC(F)(F)F)c3)nn([C@@H](C)c3ccccn3)c2c1` [Compound P-2098, 3,5-dimethyl-4-[1-[(1S)-1-(2-pyridyl)ethyl]-3-[1-(2,2,2-trifluoroethyl)pyrazol-4-yl]pyrazolo[4,3-b]pyridin-6-yl]isoxazole], the IC50 is less than 10 µM.

The compound `Cc1noc(C)c1-c1cnc2c(-c3cnn(C)c3)nn([C@@H](C)c3ccccn3)c2c1` [Compound P-2099, 3,5-dimethyl-4-[3-(1-methylpyrazol-4-yl)-1-[(1S)-1-(2-pyridyl)ethyl]pyrazolo[4,3-b]pyridin-6-yl]isoxazole] registered an IC50 of less than 10 µM.

`Cc1noc(C)c1-c1cnc2[nH]nc(Cc3ccccc3)c2c1` [Compound P-2100, 4-(3-benzyl-1H-pyrazolo[3,4-b]pyridin-5-yl)-3,5-dimethyl-isoxazole] yielded an IC50 of less than 10 µM.

Turning to `CCOC(=O)c1ccc(-n2nc(Cc3ccccc3)c3cc(-c4c(C)noc4C)cnc32)c(F)c1` [Compound P-2101, ethyl 4-[3-benzyl-5-(3,5-dimethylisoxazol-4-yl)pyrazolo[3,4-b]pyridin-1-yl]-3-fluoro-benzoate], the IC50 is less than 10 µM.

In turn, `Cc1noc(C)c1-c1cnc2c(c1)c(Cc1ccccc1)nn2-c1ccc(C(=O)O)cc1F` [Compound P-2102, 4-[3-benzyl-5-(3,5-dimethylisoxazol-4-yl)pyrazolo[3,4-b]pyridin-1-yl]-3-fluoro-benzoic acid] yielded an IC50 of less than 10 µM.

By IC50 is commonly meant the point on the concentration scale where inhibition reaches its midpoint. Read a low IC50 as greater potency.
